Results published in US20250326744A1, “PIPERAZINE DERIVATIVE OR SALT THEREOF, AND PHARMACEUTICAL COMPOSITION” (priority 2022, published 2025).
Structures can show the parent of a compound that is named as a salt.

Tests used:
mexB (PA) strain = test: Combinational effect with antibacterial agent against Pseudomonas aeruginosa (Test Examples 2 and 4): mexB (PA) strain with LVFX, TC or AZT at 1/4 MIC, EC99; format: cell-based; conditions: Table 52, Test Example 2, 16 to 20 hours culture, OD595; for EC99, mexB (PA), AZT: combined with AZT at 1/4 MIC; for EC99, mexB (PA), LVFX: combined with LVFX at 1/4 MIC; for EC99, mexB (PA), TC: combined with TC at 1/4 MIC
Description: (§1) The combinational effect of the test compound with the antibacterial agent against Pseudomonas aeruginosa was evaluated.
For the evaluation of the inhibitory ability against MexAB-OprM, a mutant strain of Pseudomonas aeruginosa in which MexAB-OprM was expressed as a main drug efflux pump (hereinafter, referred to as a “mexB (PA) strain”) was used. LVFX, TC, or AZT was used as the antibacterial agent used in combination.
The mexB (PA) strain is a strain produced by deleting the genes of MexCD-OprJ, MexEF-OprN, and MexXY in the drug efflux pump of Pseudomonas aeruginosa described in FEMS Microbiology Letters, 2001, Vol. 202, pp. 139 to 143. In the mexB (PA) strain, an expression level of MexB as a drug efflux pump is accelerated.
TC is a tetracycline-based antibacterial agent and is a drug that is discharged outside the bacteria by MexB. AZT is a monobactam-based antibacterial agent and is a drug that is discharged outside the bacteria by MexB.
(§2) AMK and GM are aminoglycoside-based antibacterial agents, and are drugs that are not discharged outside the bacteria by MexB but are discharged outside the bacteria by MexY For the culture of each Pseudomonas aeruginosa strain, a 96-well plate (amount of culture medium per well: 100 μL) was used, and cation-adjusted Mueller Hinton broth (CAMHB) was used. The inoculation amount of the bacteria was set to 10^4 to 5 CFU/well.
(§3) The mexB (PA) strain and the S-3769 strain were cultured for 16 to 20 hours in a culture medium to which each antibacterial agent and test compounds at various concentrations (0 to 800 μM) were added, and the proliferation of the bacterial strains was evaluated by optical turbidity at 595 nm (OD595). The concentration of the antibacterial agent in the culture medium was set to ¼ MIC.
(§4) The proliferation of bacteria in a case where the test compound and the antibacterial agent were not added was measured, and compared with the proliferation of bacteria in a case where the test compound in a case where the antibacterial agent was added at the concentration of ¼ MIC was contained, and the lowest concentration of the test compound at which the proliferation was inhibited by 99% or more was defined as the drug efflux pump inhibitory ability of the test compound as 99% inhibitory effect concentration (EC99).
(§5) The effect of suppressing the proliferation of each test compound in combination with an antibacterial agent at ¼ MIC for mexB (PA) or the S-3769 strain was evaluated as follows according to the value of EC99. • S: EC99≤12.5 μM • A: 12.5 μM<EC99≤25 μM • B: 25 μM<EC99≤100 μM • C: 100 μM<EC99
(§6) The combinational effect of the test compound with the antibacterial agent against Pseudomonas aeruginosa was evaluated in the same manner as in Test Example 2.

S-3769 strain = test: Combinational effect with antibacterial agent against Pseudomonas aeruginosa (Test Examples 2 and 4): S-3769 strain with AMK or GM at 1/4 MIC, EC99; format: cell-based; conditions: Table 52, Test Example 2, 16 to 20 hours culture, OD595; for EC99, S-3769 strain, AMK: combined with AMK at 1/4 MIC; for EC99, S-3769 strain, GM: combined with GM at 1/4 MIC
Description: as §1
The […] was used for evaluating the inhibitory ability against MexXY-OprM. AMK or GM was used as the antibacterial agent used in combination.
The S-3769 strain is a clinically isolated strain collected from a domestic medical institution, and is a strain in which the expression level of MexY is accelerated.
as §2, §3, §4, §5, §6

| SMILES | EC99, mexB (PA), AZT (mexB (PA) strain) | EC99, mexB (PA), LVFX (mexB (PA) strain) | EC99, mexB (PA), TC (mexB (PA) strain) | EC99, S-3769 strain, AMK (S-3769 strain) | EC99, S-3769 strain, GM (S-3769 strain) |
| --- | --- | --- | --- | --- | --- |
| N[C@@H](C(=O)N1CCN(Cc2ccccc2OCC(F)(F)F)CC1)C1CCN(CCc2cc(Cl)ccc2-c2ccccc2)CC1 [Example 2, Hydrobromide of (R)-2-amino-2-(1-(2-(4-chloro-[1,1′-biphenyl]-2-yl)ethyl)piperidin-4-yl)-1-(4-(2-(2,2,2-trifluoroethoxy)benzyl)piperazin-1-yl) ethan-1-one] | B (25 μM<EC99≤100 μM) | C (100 μM<EC99) | B (25 μM<EC99≤100 μM) | S (EC99≤12.5 μM) | S (EC99≤12.5 μM) |
| CCOc1c(Cl)ccc(F)c1CN1CCN(C(=O)[C@H](N)C2CCN(CCc3cc(Cl)ccc3-c3ccccc3)CC2)CC1 [Example 9, Hydrobromide of (R)-2-amino-1-(4-(3-chloro-2-ethoxy-6-fluorobenzyl)piperazin-1-yl)-2-(1-(2-(4-chloro-[1,1′-biphenyl]-2-yl)ethyl)piperidin-4-yl) ethan-1-one] | B (25 μM<EC99≤100 μM) | C (100 μM<EC99) | B (25 μM<EC99≤100 μM) | A (12.5 μM<EC99≤25 μM) | A (12.5 μM<EC99≤25 μM) |
| N[C@@H](C(=O)N1CCN(Cc2cccc3c2OCCC3)CC1)C1CCN(CCc2cc(Cl)ccc2-c2ccccc2)CC1 [Example 10, Hydrobromide of (R)-2-amino-2-(1-(2-(4-chloro-[1,1′-biphenyl]-2-yl)ethyl)piperidin-4-yl)-1-(4-(chroman-8-ylmethyl)piperazin-1-yl)ethan-1-one] | A (12.5 μM<EC99≤25 μM) | A (12.5 μM<EC99≤25 μM) | A (12.5 μM<EC99≤25 μM) | A (12.5 μM<EC99≤25 μM) | A (12.5 μM<EC99≤25 μM) |
| N[C@@H](C(=O)N1CCN(Cc2scc3c2OCCO3)CC1)C1CCN(CCc2cc(Cl)ccc2-c2ccccc2)CC1 [Example 11, Hydrobromide of (R)-2-amino-2-(1-(2-(4-chloro-[1,1′-biphenyl]-2-yl)ethyl)piperidin-4-yl)-1-(4-((2,3-dihydrothieno[3,4-b][1,4]dioxin-5-yl)methyl)piperazin-1-yl)ethan-1-one] | B (25 μM<EC99≤100 μM) | B (25 μM<EC99≤100 μM) | B (25 μM<EC99≤100 μM) | B (25 μM<EC99≤100 μM) | A (12.5 μM<EC99≤25 μM) |
| N[C@@H](C(=O)N1CCN(Cc2c(F)cccc2OCC(F)F)CC1)C1CCN(CCc2cc(Cl)ccc2-c2ccccc2)CC1 [Example 18, Hydrobromide of (R)-2-amino-2-(1-(2-(4-chloro-[1,1′-biphenyl]-2-yl)ethyl)piperidin-4-yl)-1-(4-(2-(2,2-difluoroethoxy)-6-fluorobenzyl)piperazin-1-yl)ethan-1-one] | B (25 μM<EC99≤100 μM) | B (25 μM<EC99≤100 μM) | B (25 μM<EC99≤100 μM) | A (12.5 μM<EC99≤25 μM) | A (12.5 μM<EC99≤25 μM) |
| CCOc1cccc(F)c1CN1CCN(C(=O)[C@H](N)C2CCN(CCc3ccccc3)CC2)CC1 [Example 114, Hydrochloride of (R)-2-amino-1-(4-(2-ethoxy-6-fluorobenzyl)piperazin-1-yl)-2-(1-phenethylpiperidin-4-yl)ethan-1-one] | C (100 μM<EC99) | C (100 μM<EC99) |  |  |  |
| COc1ccccc1CN1CCN(C(=O)[C@H](N)C2CCN(CCc3ccc(Cl)s3)CC2)CC1 [Example 134, Hydrochloride of (R)-2-amino-2-(1-(2-(5-chlorothiophen-2-yl)ethyl)piperidin-4-yl)-1-(4-(2-methoxybenzyl)piperazin-1-yl) ethan-1-one] | C (100 μM<EC99) | C (100 μM<EC99) |  |  |  |
| COc1ccccc1CN1CCN(C(=O)[C@H](N)C2CCN(CCc3cccc(Cl)c3)CC2)CC1 [Example 140, hydrochloride of (R)-2-amino-2-(1-(3-chlorophenethyl)piperidin-4-yl)-1-(4-(2-methoxybenzyl)piperazin-1-yl)ethan-1-one] | C (100 μM<EC99) | C (100 μM<EC99) |  |  |  |
| O=C(CN1CCN(CCc2ccccc2)CC1)N1CCN(Cc2ccccc2OC(F)F)CC1 [Example 200, hydrochloride of 1-(4-(2-(difluoromethoxy)benzyl)piperazin-1-yl)-2-(4-phenethylpiperazin-1-yl)ethan-1-one] | B (25 μM<EC99≤100 μM) | B (25 μM<EC99≤100 μM) |  |  |  |
| COc1cccc(F)c1CN1CCN(C(=O)CN2CCN(CCc3ccccc3)CC2)CC1 [Example 215, hydrochloride of 1-(4-(2-fluoro-6-methoxybenzyl)piperazin-1-yl)-2-(4-phenethylpiperazin-1-yl)ethan-1-one] | A (12.5 μM<EC99≤25 μM) | S (EC99≤12.5 μM) |  |  |  |
| CCOc1ccccc1CN1CCN(C(=O)CN2CCN(CCc3ccccc3)CC2)CC1 [Example 220, Hydrochloride of 1-(4-(2-ethoxybenzyl)piperazin-1-yl)-2-(4-phenethylpiperazin-1-yl) ethan-1-one] |  | S (EC99≤12.5 μM) |  |  |  |
| COc1ccc(F)c(F)c1CN1CCN(C(=O)CN2CCN(CCc3ccccc3)CC2)CC1 [Example 247, Hydrochloride of 1-(4-(2,3-difluoro-6-methoxybenzyl)piperazin-1-yl)-2-(4-phenethylpiperazin-1-yl)ethan-1-one] | A (12.5 μM<EC99≤25 μM) | B (25 μM<EC99≤100 μM) |  |  |  |
| COc1ccsc1CN1CCN(C(=O)CN2CCN(CCc3ccccc3)CC2)CC1 [Example 249, Hydrochloride of 1-(4-((3-methoxythiophen-2-yl)methyl)piperazin-1-yl)-2-(4-phenethylpiperazin-1-yl)ethan-1-one] | C (100 μM<EC99) | C (100 μM<EC99) |  |  |  |
| COc1ccccc1CN1CCN(C(=O)C(C)N2CCN(CCc3ccccc3)CC2)CC1 (stereo not shown) [Example 261, hydrochloride of 1-(4-(2-methoxybenzyl)piperazin-1-yl)-2-(4-phenethylpiperazin-1-yl)propan-1-one] | A (12.5 μM<EC99≤25 μM) | B (25 μM<EC99≤100 μM) |  |  |  |
| COc1ccccc1CN1CCN(C(=O)CN2CCN(CCC3CCCCC3)CC2)CC1 [Example 275, 2-(4-(2-Cyclohexylethyl)piperazin-1-yl)-1-(4-(2-methoxybenzyl)piperazin-1-yl) ethan-1-one and hydrochloride thereof] | S (EC99≤12.5 μM) | A (12.5 μM<EC99≤25 μM) |  |  |  |
| COc1ccccc1CN1CCN(C(=O)CN2CCC(C#N)(CCc3ccccc3)CC2)CC1 [Example 401, Hydrochloride of 1-(2-(4-(2-methoxybenzyl)piperazin-1-yl)-2-oxoethyl)-4-phenethylpiperidine-4-carbonitrile] | B (25 μM<EC99≤100 μM) | C (100 μM<EC99) |  |  |  |
| COc1ccccc1CN1CCN(C(=O)CN2CCC(N(C)Cc3ccccc3)CC2)CC1 [Example 420, hydrochloride of 2-(4-(benzyl(methyl)amino)piperidin-1-yl)-1-(4-(2-methoxybenzyl)piperazin-1-yl)ethan-1-one] | C (100 μM<EC99) | C (100 μM<EC99) | C (100 μM<EC99) |  |  |
